Assay results from patent publication US8299252B2, “Pyrazolopyridine and pyrrolopyridine multikinase inhibitors” (Chugai Seiyaku Kabushiki Kaisha, priority 2005, dated 2012).
pIC50: −log10 of the molar value. In brackets after ≈: the same amount, converted by molar mass.

Key:
[1] = tested on: human umbilical vein endothelial cells (HUVEC), VEGF-dependent proliferation; assay: VEGF-dependent HUVEC proliferation inhibition assay; format: cell-based; details: read-out: 50% proliferation inhibitory concentration (IC50 value) HUVEC (VEGF-dependent), 20 ng/mL of VEGF, 72 hours, WST-1
Protocol: (§1) The compounds according to the present invention were measured for cancer cell proliferation inhibitory activity and human umbilical vein endothelial cell (HUVEC) proliferation inhibitory activity.
(§2) Test compounds were serially diluted with dimethyl sulfoxide and then diluted 50 times with Ca^2+- and Mg^2+-free phosphate-buffered saline, and 20 μL of each of the resulting solution was dispensed into a 96-well plate. […] Each cell suspension contains approximately 3000 cells/180 μL. These cell suspensions were dispensed to the plate containing the test compounds at 180 μL/well and incubated in a 5% carbon dioxide gas incubator at 37° C. for 72 hours. 20 μL of WST-8 (HCT116, Dojin) or WST-1 (HUVEC, Roche Diagnostics) was added to each well, and absorbance at 450 nm (reference wavelength: 650 nm) was measured.

[2] = molecular target: T1, FLT3 intracellular domain protein (Homo sapiens, UniProt P36888); assay: Flt3 enzyme inhibition test (HTRF); format: biochemical; details: phosphorylation of biotinylated peptide
T1 sequence (P36888 564-993 limits assumed): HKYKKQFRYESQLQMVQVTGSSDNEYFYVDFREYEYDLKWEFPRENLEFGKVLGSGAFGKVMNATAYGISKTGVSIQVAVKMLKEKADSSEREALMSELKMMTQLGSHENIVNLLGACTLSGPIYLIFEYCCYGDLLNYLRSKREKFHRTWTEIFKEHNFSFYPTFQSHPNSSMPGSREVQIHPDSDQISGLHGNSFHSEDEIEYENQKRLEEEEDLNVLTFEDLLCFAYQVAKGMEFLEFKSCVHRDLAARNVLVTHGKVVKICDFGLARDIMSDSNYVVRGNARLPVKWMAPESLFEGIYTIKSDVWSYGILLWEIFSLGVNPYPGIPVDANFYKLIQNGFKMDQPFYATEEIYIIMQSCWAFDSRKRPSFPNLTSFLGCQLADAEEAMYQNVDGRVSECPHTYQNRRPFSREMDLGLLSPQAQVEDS
Protocol: The FLT3 inhibitory activity was measured by the activity of FLT3 intracellular domain protein inhibiting for phosphorylation of a biotinylated peptide ([…]).

[3] = tested on: human colon cancer cell line HCT116 cells; assay: Cell proliferation inhibitory activity, HCT116; format: cell-based; details: for pIC50: Homo sapiens, HCT-116, read-out: 50% proliferation inhibitory concentration (IC50 value) HCT116, HCT116, 72 hours, WST-8
Protocol: as §1, §2

[4] = tested on: human umbilical vein endothelial cells (HUVEC), VEGF-independent proliferation; assay: VEGF-independent HUVEC proliferation inhibition assay; format: cell-based; details: read-out: 50% proliferation inhibitory concentration (IC50 value) HUVEC (VEGF-independent), vascular endothelial cell growth-promoting agent and heparin, 72 hours, WST-1
Protocol: as §1, §2

Raf-1 = Raf-1 (Homo sapiens, UniProt P04049); assay: Raf-1 enzyme inhibition assay (MEK-1 phosphorylation, HTRF); format: biochemical; details: for pIC50: phosphorylation of His6-MEK-1
Protocol: (§3) The compounds according to the present invention were measured for Raf-1 and KDR enzyme inhibitory activities.
(§4) The Raf-1 inhibitory activity was measured by the activity of Raf-1 protein for inhibiting phosphorylation of MEK-1 protein having six histidine residues (His6) fused to the N-terminus thereof. […] The KDR inhibitory activity was measured by the activity of KDR intracellular domain protein for inhibiting phosphorylation of a biotinylated peptide ([…]).

[5] = molecular target: KDR intracellular domain protein (Homo sapiens, UniProt P35968); assay: KDR enzyme inhibition assay (biotinylated peptide phosphorylation, HTRF); format: biochemical; details: phosphorylation of biotinylated peptide
Protocol: as §3, §4

[6] = Solubility in fasted state simulated intestinal fluid; format: physicochemical; details: pH 6.5, fassif, kinetic from dmso stock, fasted state simulated intestinal fluid (pH6.5), 37° C.
Protocol: 2 μL of each dimethyl sulfoxide solutions containing test compounds were dispensed into wells of a 96-well plate, and 200 μL of fasted state simulated intestinal fluid (pH6.5) was added to each well. The plate was shaken at 37° C. for 20 hours. The solution was filtered through a membrane filter, and 101 μL of the filtrate was transferred to a UV plate, followed by addition of 100 μL of a solution mixture of ethanol:water=2:1 thereto. Separately, as a standard, 101 μL of a solution prepared by 2 μL of a dimethyl sulfoxide solution, 4 μL of dimethyl sulfoxide, 400 μL of ethanol, and 200 μL of water was transferred to a UV plate, and 100 μL of fasted state simulated intestinal fluid (pH6.5) was added thereto. The solubility was calculated by the following expression: Solubility=[(absorbance of test solution)−blank]/[(absorbance of standard solution)−blank]×165 μM (165 μM is the concentration of the standard solution) Composition of the fasted state simulated intestinal fluid (pH6.5)
The composition was prepared in compliance with the description in E. Galia, et al., Pharm. Res. 1998, 698.
Taurocholic acid (161 mg), L-α-phosphatidylcholine (59 mg), potassium dihydrogen phosphate (0.39 g), and potassium chloride (0.77 g) were added to about 90 mL of water. The resulting solution was adjusted to a pH of 6.5 with a sodium hydroxide aqueous solution and then diluted to a volume of 100 mL with water. The solution was filtered through a membrane filter.

Raf-1, sequence (P04049 whole entry): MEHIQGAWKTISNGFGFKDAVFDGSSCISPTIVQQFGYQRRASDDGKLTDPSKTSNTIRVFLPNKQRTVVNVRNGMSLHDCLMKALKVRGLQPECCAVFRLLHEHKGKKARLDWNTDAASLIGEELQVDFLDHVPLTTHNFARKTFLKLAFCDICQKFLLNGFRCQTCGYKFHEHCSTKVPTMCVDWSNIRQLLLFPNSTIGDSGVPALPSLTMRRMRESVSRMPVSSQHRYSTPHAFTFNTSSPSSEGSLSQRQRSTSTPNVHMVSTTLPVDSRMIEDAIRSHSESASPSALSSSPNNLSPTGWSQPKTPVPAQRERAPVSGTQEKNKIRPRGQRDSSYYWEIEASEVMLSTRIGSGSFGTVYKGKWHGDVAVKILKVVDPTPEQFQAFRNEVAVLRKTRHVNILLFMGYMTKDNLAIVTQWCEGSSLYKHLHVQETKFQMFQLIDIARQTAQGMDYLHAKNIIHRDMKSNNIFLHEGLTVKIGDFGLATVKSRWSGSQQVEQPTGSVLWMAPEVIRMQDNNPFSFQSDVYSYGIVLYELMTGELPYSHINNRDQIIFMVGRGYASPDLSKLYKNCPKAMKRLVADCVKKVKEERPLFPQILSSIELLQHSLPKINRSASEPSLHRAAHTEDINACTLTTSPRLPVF
KDR intracellular domain protein, sequence (P35968 786-1356 limits assumed): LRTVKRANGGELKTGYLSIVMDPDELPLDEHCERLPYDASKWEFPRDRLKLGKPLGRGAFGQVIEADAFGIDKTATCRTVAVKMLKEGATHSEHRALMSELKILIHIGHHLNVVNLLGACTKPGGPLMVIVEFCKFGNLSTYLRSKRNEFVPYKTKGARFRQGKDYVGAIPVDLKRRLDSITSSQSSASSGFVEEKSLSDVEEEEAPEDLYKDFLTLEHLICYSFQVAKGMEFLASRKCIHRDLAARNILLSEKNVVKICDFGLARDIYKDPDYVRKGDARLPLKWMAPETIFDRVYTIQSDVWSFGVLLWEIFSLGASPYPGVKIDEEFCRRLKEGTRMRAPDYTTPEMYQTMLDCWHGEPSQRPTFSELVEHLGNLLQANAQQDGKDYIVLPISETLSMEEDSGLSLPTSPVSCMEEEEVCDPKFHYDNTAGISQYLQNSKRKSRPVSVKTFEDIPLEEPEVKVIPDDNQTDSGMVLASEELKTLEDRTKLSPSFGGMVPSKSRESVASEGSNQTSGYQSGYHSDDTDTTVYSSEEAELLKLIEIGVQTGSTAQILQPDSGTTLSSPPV

pIC50 [2]	pIC50 [3]	pIC50 (Raf-1)	pIC50 [5]	solubility at 20 h [6] [µg/mL]	Raf-1 inhibitory activity (in words) (Raf-1)	SMILES	pIC50 [1]	pIC50 [4]	proliferation inhibitory activity for HCT116 cells (in words) [3]
7.82	5.47	–	–	–	–	COCCOc1cccc2cc(NC(=O)Nc3ccc(Oc4ccnc5[nH]ccc45)cc3)ccc12 [Compound 3, 1-[5-(2-Methoxyethoxy)naphthalen-2-yl]-3-[4-(1H-pyrrolo[2,3-b]pyridin-4-yloxy)phenyl]urea]	8.43	5.36	–
–	5.77	7.19	8.66	–	–	O=C(Nc1ccc(Oc2ccnc3[nH]ccc23)cc1)Nc1cc(OC2CCOCC2)cc(C(F)(F)F)c1 [Compound 9, 1-[4-(1H-Pyrrolo[2,3-b]pyridin-4-yloxy)phenyl]-3-[3-(tetrahydro-pyran-4-yloxy)-5-(trifluoromethyl)phenyl]urea]	7.52	5.74	–
–	5.51	–	–	15 (≈ 29.4 µM)	–	O=C(Nc1ccc(Oc2ccnc3[nH]ccc23)cc1)Nc1ccc(OCC(F)(F)F)c(C(F)(F)F)c1 [Compound 13, 1-[4-(1H-Pyrrolo[2,3-b]pyridin-4-yloxy)phenyl]-3-[4-(2,2,2-trifluoro-ethoxy)-3-(trifluoromethyl)phenyl]urea]	8.13	5.92	–
–	–	–	–	25 (≈ 50.4 µM)	–	O=C(Nc1ccc(Oc2ccnc3[nH]ccc23)cc1)Nc1ccc(OC(F)(F)F)c(C(F)(F)F)c1 [Compound 20, 1-[4-(1H-Pyrrolo[2,3-b]pyridin-4-yloxy)phenyl]-3-[4-trifluoromethoxy-3-(trifluoromethyl)phenyl]urea]	–	–	–
8.16	–	7.72	8.43	–	–	O=C(Nc1ccc(Oc2ccnc3[nH]ncc23)cc1)Nc1ccc(CCF)c(C(F)(F)F)c1 [Compound 23, 1-[4-(2-Fluoroethyl)-3-(trifluoromethyl)phenyl]-3-[4-(1H-pyrazolo[3,4-b]pyridin-4-yloxy)phenyl]urea]	–	–	–
7.74	–	–	–	19 (≈ 41.4 µM)	–	O=C(Nc1ccc(Oc2ccnc3[nH]ncc23)cc1)Nc1cc(CCF)cc(C(F)(F)F)c1 [Compound 24, 1-[3-(2-Fluoroethyl)-5-(trifluoromethyl)phenyl]-3-[4-(1H-pyrazolo[3,4-b]pyridin-4-yloxy)phenyl]urea]	–	–	–
–	5.80	7.09	8.04	–	–	O=C(Nc1ccc(Oc2ccnc3[nH]ccc23)cc1)Nc1cc(CCCF)cc(C(F)(F)F)c1 [Compound 29, 1-[3-(3-Fluoropropyl)-5-(trifluoromethyl)phenyl]-3-[4-(1H-pyrrolo[2,3-b]pyridin-4-yloxy)phenyl]urea]	8.10	5.96	–
–	5.82	7.21	9.02	–	–	O=C(Nc1ccc(Oc2ccnc3[nH]ccc23)cc1)Nc1cc(CCC(F)F)cc(C(F)(F)F)c1 [Compound 32, 1-[3-(3,3-Difluoropropyl)-5-(trifluoromethyl)phenyl]-3-[4-(1H-pyrrolo[2,3-b]pyridin-4-yloxy)phenyl]urea]	7.82	5.92	–
–	–	–	–	21 (≈ 43.2 µM)	–	O=C(Nc1ccc(Oc2ccnc3[nH]ccc23)cc1)Nc1ccc(CCCCF)c(C(F)(F)F)c1 [Compound 34, 1-[4-(4-Fluorobutyl)-3-(trifluoromethyl)phenyl]-3-[4-(1H-pyrrolo[2,3-b]pyridin-4-yloxy)phenyl]urea]	–	–	–
–	–	–	–	18 (≈ 36.9 µM)	–	O=C(Nc1ccc(Oc2ccnc3[nH]ncc23)cc1)Nc1ccc(CCCCF)c(C(F)(F)F)c1 [Compound 35, 1-[4-(4-Fluorobutyl)-3-(trifluoromethyl)phenyl]-3-[4-(1H-pyrazolo[3,4-b]pyridin-4-yloxy)phenyl]urea]	–	–	–
–	–	7.19	8.89	–	–	O=C(Nc1ccc(Oc2ccnc3[nH]ccc23)cc1)Nc1cc(CCCCF)cc(C(F)(F)F)c1 [Compound 38, 1-[3-(4-Fluorobutyl)-5-(trifluoromethyl)phenyl]-3-[4-(1H-pyrrolo[2,3-b]pyridin-4-yloxy)phenyl]urea]	–	–	–
–	–	7.09	8.46	–	–	O=C(Nc1ccc(Oc2ccnc3[nH]ccc23)cc1)Nc1cc(CCCC(F)F)cc(C(F)(F)F)c1 [Compound 41, 1-[3-(4,4-Difluorobutyl)-5-(trifluoromethyl)phenyl]-3-[4-(1H-pyrrolo[2,3-b]pyridin-4-yloxy)phenyl]urea]	–	–	–
8.22	5.36	–	–	–	–	O=C(Nc1ccc(Oc2ccnc3[nH]ccc23)cc1)Nc1ccc2c(CCF)cccc2c1 [Compound 42, 1-[5-(2-Fluoroethyl)naphthalen-2-yl]-3-[4-(1H-pyrrolo[2,3-b]pyridin-4-yloxy)phenyl]urea]	7.30	5.23	–
–	5.48	–	–	–	–	O=C(Nc1ccc(Oc2ccnc3[nH]ccc23)cc1)Nc1ccc2c(CCCF)cccc2c1 [Compound 46, 1-[5-(3-Fluoropropyl)naphthalen-2-yl]-3-[4-(1H-pyrrolo[2,3-b]pyridin-4-yloxy)phenyl]urea]	7.82	5.39	–
–	–	–	–	35 (≈ 72.9 µM)	–	O=C(Nc1ccc(Oc2ccnc3[nH]ccc23)cc1)Nc1cc(C(F)(F)F)cc(C(F)(F)F)c1 [Compound 50, 1-[3,5-Bis(trifluoromethyl)phenyl]-3-[4-(1H-pyrrolo[2,3-b]pyridin-4-yloxy)phenyl]urea]	–	–	–
7.80	6.00	7.46	9.46	15 (≈ 33.8 µM)	–	O=C(Nc1ccc(Oc2ccnc3[nH]ccc23)cc1)Nc1ccc(CF)c(C(F)(F)F)c1 [Compound 51, 1-(4-fluoromethyl-3-trifluoromethyl-phenyl)-3-[4-(1H-pyrrolo[2,3-b]pyridin-4-yloxy)phenyl]urea]	8.40	6.10	–
–	5.82	7.33	8.07	–	–	CCc1ccc(NC(=O)Nc2ccc(Oc3ccnc4[nH]ccc34)cc2)cc1C(F)(F)F [Compound 55, 1-(4-Ethyl-3-trifluoromethyl-phenyl)-3-[4-(1H-pyrrolo[2,3-b]pyridin-4-yloxy)phenyl]urea]	8.14	5.85	–
–	5.66	7.15	7.80	–	–	C=Cc1ccc(NC(=O)Nc2ccc(Oc3ccnc4[nH]ccc34)cc2)cc1C(F)(F)F [Compound 56, 1-[4-(1H-Pyrrolo[2,3-b]pyridin-4-yloxy)phenyl]-3-(3-trifluoromethyl-4-vinyl-phenyl)urea]	7.92	5.51	–
–	–	–	–	–	does not have Raf-1 inhibitory activity	O=C(Nc1ccc(F)cc1)Nc1ccc(Oc2ccnc3[nH]ccc23)cc1 [Compound B, reference compound]	–	–	does not have proliferation inhibitory activity
